Experimental data reported in patent publication US20100204254A1, “Use of statins in the prevention and treatment of radiation injury and other disorders associated with reduced endothelial thrombomodulin” (The University of Arkansas for Medical Sciences, priority 2002, published 2010).

Key:
[1] = system: thrombomodulin mRNA (EA.hy926 endothelial cells); experiment: Fluorogenic probe RT-PCR, steady-state thrombomodulin mRNA; assay type: cell-based, human; design: concentration dependence of thrombomodulin mRNA: dose or concentration left out as unconfirmed; details: for mRNA (thrombomodulin): FPP 10 μM, squalene 100 μM, GGPP 10 μM, atorvastatin 10 μM, intermediates 30 min before 24-hour atorvastatin, mean ± SEM, method gives % b-actin; for increase in thrombomodulin transcript: 10 mM atorvastatin
Experimental: (§1) Steady-state TM mRNA levels were measured using quantitative real-time RT-PCR (Dr. G. Shipley, Quantitative Genomics Core Laboratory, University of Texas Health Science Center, Houston, Tex.). Human thrombomodulin and b-actin fluorogenic oligonucleotide probes and primers were designed from Genbank sequences, using Primer Express software (Applied Biosystems, Foster City, Calif.) and synthesized by Biosource International (Camarillo, Calif.). Total RNA was extracted using TRIZOL Reagent (Invitrogen, Carlsbad, Calif.) and the RNA samples were treated with RNAse-free DNAse I (Promega, Madison, Wis.). cDNA was synthesized from total RNA in 10 μl total volume, consisting of 6 μl RT master mix (Invitrogen, Carlsbad, Calif.) and a 4-μl RNA sample (30 ng/μl), using a thermocycler (MJR, Waltham, Mass.) for 30 minutes at 50° C. followed by 72° C. for 10 min. Samples were measured in triplicate. An assay-specific sDNA standard spanning a 5-log range and appropriate controls were included. Forty ml of a PCR master mix was pipetted directly onto each well of the cDNA plate utilizing a Biomek 2000 robotic workstation (Beckman, Fullerton, Calif.), and amplified (95° C. for 1 min; 40 cycles of 95° C. for 12 sec, and 60° C. for 1 min) using the 7700 Sequence Detector (Applied Biosystems). The data were normalized to b-actin and presented as molecules of TM transcript/molecules of b-actin transcript×100 (% b-actin).

[2] = system: thrombomodulin protein (EA.hy926 endothelial cells); experiment: Western blotting of thrombomodulin protein in cell lysates; assay type: cell-based, human; details: for Protein (thrombomodulin): same treatments, untreated control = 100, mean ± SEM
Experimental: (§2) Cells were harvested with trypsin/EDTA and lysed in lysis buffer (10 mM Tris, pH7.4, 150 mM NaCl, 1 mM EDTA, IGPAL CA630, 1 mM PMSF). Protein concentration was measured with the BCA assay (Pierce, Rockford, Ill.). Proteins (20 μg/per lane) were resolved by NuPAGE 4-10% Bis-tris gel electrophoresis (Invitrogen, Carlsbad, Calif.) and electrotransferred onto nitrocellulose membranes. Membranes were probed with primary mouse anti-human thrombomodulin antibody (American Diagnostica), followed by application of a secondary horseradish peroxidase-conjugated (HRP) anti-mouse IgG antibody (American Diagnostica). A mouse anti-human b-actin antibody (either from Sigma or Santa Cruz Biotechnology) was used for protein loading control. HRP signals were detected with an enhanced chemiluminescence (ECL) detection system (Amersham Pharmacia Biotech). Band densities were determined from X-Ray film using SigmaGel software (Jandel Scientific, San Rafael, Calif.).
Total thrombomodulin protein in cell lysates was measured by western blotting. EA.hy926 cells were grown to early (90%+) confluence. The cells were washed with 1×PBS twice and lysed by adding 1 ml lysis buffer (10 mM Tris, pH 7.4; 150 mM NaCl; 1 mM EDTA; 1% NP-40 or IGPAL CA630; 1 mM PMSF), and the lysate was collected into eppendorf tubes. Protein concentrations were measured with the BCA protein assay kit (Pierce). Protein aliquots of each sample were mixed with 4× loading buffer, placed in a boiling water bath for 5 min, and subsequently separated by NuPAGE 4-10% Bis-tris gel electrophoresis (Invitrogen Life Technologies). The proteins were transferred to a nitrocellulose membrane, probed with primary monoclonal mouse anti-human thrombomodulin antibody at 1:1000 and secondary anti-mouse IgG-HRP antibody at 1:2000 (American Diagnostica, Inc.) using standard procedures. The HRP signal was detected using ECL detection reagents (Amersham Life Sciences) and visualized on X-ray film.

[3] = system: cell surface thrombomodulin (EA.hy926 endothelial cells); experiment: Flow cytometry, cell surface thrombomodulin antigen (CD-141); assay type: cell-based, human; details: for Antigen (cell surface thrombomodulin): same treatments, mean ± SEM, method gives antibody binding sites
Experimental: (§3) Cells were examined for surface antigen expression by flow cytometry, using specific phycoerythrin-conjugated mouse antibodies against human TM (CD-141), a general endothelial cell marker (PECAM [CD-31]), and markers of stimulated endothelial cells (tissue factor [CD-142] and P-selectin [CD-62]) (BD Biosciences, San Diego, Calif.). Cell viability was assessed using 7-amino-actinomycin D (7-AAD). Phycoerythrin-conjugated mouse IgG was used as negative control. A total of 1×10^5 cells were used for each analysis. Cells were harvested, stained with appropriate phycoerythin-conjugated antibodies, fixed in 1% paraformaldehyde, and analysis was performed using a FACSCalibur Flow Cytometer (BD Immunocytometry System, San Jose, Calif.), QuantiBRITE-PE beads (BD Biosciences, San Diego, Calif.), and CELLQuest software. Antigen levels were expressed as antibody binding sites (ABS).

[4] = system: thrombomodulin activity (EA.hy926 endothelial cells); experiment: Protein C activation assay (thrombomodulin activity); assay type: cell-based, human; design: concentration dependence of cell surface thrombomodulin activity: dose or concentration left out as unconfirmed; details: for Activity (thrombomodulin, protein C activation): same treatments, mean ± SEM, method gives OD slope; for influence of enzyme inhibitors on thrombomodulin activity: data not shown; for effect of nitric oxide donors on thrombomodulin activity: 10 mM
Experimental: (§4) TM activity was assessed by measuring protein C activation in early confluent cells grown on 96-well plates. Cells were washed twice with PBS and incubated with […] protein C and 1 nM thrombin (60 min at 37° C., […] total volume) to generate activated protein C. Excess thrombin was quenched with hirudin ([…], 0.2 ATu/ml). The amount of activated protein C generated was measured by monitoring hydrolysis of chromogenic substrate S-2366 at 5-min intervals at 405 nm in a microplate reader (Bio-TEK Instruments, Winooski, Vt.). The results were expressed as mean OD slope values (DOD/Dt).
The functional activity of thrombomodulin was assessed by measuring the ability of the endothelial cells to activate protein C. All samples and reagents were diluted in APC assay diluent (20 mM Tri-HCl, pH7.4, 100 mM NaCl, 2.5 mM CaCl2, 0.5% BSA). Exponentially growing EA.hy 926 endothelial cells were seeded into 96 well plates in triplicate (2×10^4 per well). Cells were allowed to attach and grow overnight, and then washed twice with PBS and incubated for 60 min in 60 μl total volume at 37° C. with 0.5 μM protein C and 1 nM thrombin to generate activated protein C. Excess thrombin was blocked with a superstoichiometric amount of hirudin (20 μl, 0.16 U/μl, 570 nM). Generation of active protein C was determined by using a chromogenic substrate S-2366 and absorbance at 405 nm was measured by using a Vmax kinetic microplate reader.

[5] = system: endothelial cell thrombomodulin (EA.hy926 endothelial cells); experiment: Thrombomodulin expression and activity overall (mRNA, protein, surface antigen, activity); assay type: cell-based, human; design: blocking of atorvastatin-induced thrombomodulin upregulation: dose or concentration left out as unconfirmed; details: for blocking of atorvastatin-induced thrombomodulin upregulation: 30 min pre-incubation
Experimental: as §1, §2, §3, §4
Statins, by inhibiting HMG-CoA reductase, reduce the formation of mevalonate (FIG. 7). […]

[6] = system: thrombomodulin activity (human intestinal microvascular cells); experiment: Protein C activation assay (thrombomodulin activity); assay type: cell-based
Experimental: as §4

[7] = system: tissue factor (EA.hy926 endothelial cells); experiment: Tissue factor (CD-142) expression after TNF-a exposure; assay type: cell-based, human; details: atorvastatin pre-treatment, data not shown
Experimental: as §3
TNF-a potently downregulates endothelial thrombomodulin, an effect that is pathophysiologically significant in sepsis and related disorders. Therefore, the effect of atorvastatin on TNF-a-induced downregulation of endothelial cell thrombomodulin was examined. Exposure of EA.hy926 cells to TNF-a (1-20 ng/ml for 24 hours) caused a dose-dependent increase in apoptosis (4-fold at 10 ng/ml) and tissue factor (2.5-fold) and decreased thrombomodulin by 75% (data not shown). […]

[8] = system: EA.hy926 endothelial cells; experiment: Apoptosis after TNF-a exposure; assay type: cell-based, human; details: atorvastatin pre-treatment, data not shown
Experimental: TNF-a potently downregulates endothelial thrombomodulin, an effect that is pathophysiologically significant in sepsis and related disorders. Therefore, the effect of atorvastatin on TNF-a-induced downregulation of endothelial cell thrombomodulin was examined. Exposure of EA.hy926 cells to TNF-a (1-20 ng/ml for 24 hours) caused a dose-dependent increase in apoptosis (4-fold at 10 ng/ml) and tissue factor (2.5-fold) and decreased thrombomodulin by 75% (data not shown). EA.hy926 cells were pre-treated with atorvastatin (10 μM for 30 min) before exposure to TNF-a (1 or 10 ng/ml, 24 hours).

[9] = 24 hours, atorvastatin 0.1-15 mM
[10] = statin before radiation, normal and irradiated cells, 24 hours after irradiation
[11] = atorvastatin 10 μM for 30 min before TNF-a 1 or 10 ng/ml, 24 hours

Structure (SMILES): CC(C)=CCC/C(C)=C/CC/C(C)=C/COP(=O)(O)OP(=O)(O)O [FPP, farnesyl-pyrophosphate]
- mRNA (thrombomodulin) [1]: 8.2 ± 1.9
- Protein (thrombomodulin) [2]: 94 ± 9
- Antigen (cell surface thrombomodulin) [3]: 74.3 ± 1.1
- Activity (thrombomodulin, protein C activation) [4]: 3.6 ± 0.3
- blocking of atorvastatin-induced thrombomodulin upregulation [5]: only partially blocked

Structure (SMILES): CC(C)=CCC/C(C)=C/CC/C(C)=C/CC/C(C)=C/COP(=O)(O)OP(=O)(O)O [GGPP, geranylgeranyl-pyrophosphate]
- mRNA (thrombomodulin) [1]: 5.4 ± 0.5
- Protein (thrombomodulin) [2]: 124 ± 11
- Antigen (cell surface thrombomodulin) [3]: 66.6 ± 5
- Activity (thrombomodulin, protein C activation) [4]: 3.0 ± 0.7
- blocking of atorvastatin-induced thrombomodulin upregulation [5]: completely blocked

Structure (SMILES): COC(=O)[C@H](CC(C)C)NC(=O)c1ccc(NC[C@@H](N)CS)cc1-c1cccc2ccccc12 [GGTI-298]
- influence of enzyme inhibitors on thrombomodulin activity [4]: increasing thrombomodulin activity

Structure (SMILES): CCCN(CCCN)N(O)N=O [PAPA-NONOate, 3-(2-Hydroxy-2-nitroso-1-propylhydrazino)-1-propanamine]
- effect of nitric oxide donors on thrombomodulin activity [4]: mimicked the effect of atorvastatin on thrombomodulin activity

Structure (SMILES): CC1(C)N([O])C(c2ccccc2)=[N+]([O-])C1(C)C [PTIO, 2-Phenyl-4,4,5,5-tetramethylimidazoline-1-oxyl 3-oxide]
- effect of NO scavenger on atorvastatin-induced increase in thrombomodulin activity ([4]; pre-incubation with 100 mM): inhibited the atorvastatin-induced increase in thrombomodulin activity

Structure (SMILES): Cl.N=c1c[n+](N2CCOCC2)[n-]o1 [SIN-1, 3-Morpholinosydnonimine hydrochloride]
- effect of nitric oxide donors on thrombomodulin activity [4]: mimicked the effect of atorvastatin on thrombomodulin activity

Structure (SMILES): CC(C)=CCC/C(C)=C/CC/C(C)=C/CC/C=C(\C)CC/C=C(\C)CCC=C(C)C [Squalene, squalene]
- mRNA (thrombomodulin) [1]: 5.9 ± 1.0
- Protein (thrombomodulin) [2]: 147 ± 29
- Antigen (cell surface thrombomodulin) [3]: 60.9 ± 1.9
- Activity (thrombomodulin, protein C activation) [4]: 2.4 ± 0.6
- blocking of atorvastatin-induced thrombomodulin upregulation [5]: ineffective in blocking

Structure (SMILES): CC(C)c1c(C(=O)Nc2ccccc2)c(-c2ccccc2)c(-c2ccc(F)cc2)n1CC[C@@H](O)C[C@@H](O)CC(=O)O [atorvastatin]
- increase in thrombomodulin transcript ([1]; 8 hours): 3 fold
- increase in thrombomodulin transcript ([1]; 24 hours): > 10 fold
- concentration dependence of thrombomodulin mRNA ([1]; 24 hours): prominent dose-dependent increase
- mRNA (thrombomodulin) [1]: 71.7 ± 8.8
- increase in thrombomodulin protein ([2]; 10 mM atorvastatin, 24 hours): 2- to 3 fold
- concentration dependence of cellular thrombomodulin protein [2, 9]: prominent dose-dependent increase
- thrombomodulin protein, Western blot of cell lysates ([2]; irradiated and non-irradiated cells): prominent increase in thrombomodulin protein
- Protein (thrombomodulin) [2]: 403 ± 70
- increase in cell surface TM antigen ([3]; 10 mM statin, 24 hours): 2- to 3 fold
- concentration dependence of cell surface thrombomodulin antigen [3, 9]: prominent dose-dependent increase
- Antigen (cell surface thrombomodulin) [3]: 146.2 ± 1.9
- thrombomodulin antigen expression compared to control endothelial cells [3, 10]: significantly higher
- increase in TM activity (protein C activation) ([4]; 10 mM statin, 24 hours): 2- to 3 fold
- thrombomodulin activity in irradiated endothelial cells ([4]; 25 Gy single dose radiation): essentially restored normal thrombomodulin activity
- concentration dependence of cell surface thrombomodulin activity ([4]; 24 hours, different concentrations): prominent dose-dependent increase
- effect on TNF-a-induced downregulation of thrombomodulin activity [4, 11]: completely counteracted
- Activity (thrombomodulin, protein C activation) [4]: 4.1 ± 0.3
- thrombomodulin activity compared to control endothelial cells [4, 10]: significantly higher
- endothelial thrombomodulin activity (protein C activation assay) [6]: significantly affected
- levels of thrombomodulin gene expression, protein and surface expression under TNF-a [5, 11]: significantly above those of untreated control cells
- effect on TNF-a-induced tissue factor expression [7]: did not affect
- effect on TNF-a-induced apoptosis [8]: did not affect

Structure (SMILES): CC(O)(CCO)CC(=O)O (centres unmarked) [mevalonate, Mevalonate]
- inhibition of atorvastatin-induced thrombomodulin upregulation ([5]; 100 mM or 500 mM mevalonate 30 min prior to 24-hour): dose-dependent inhibition
- inhibition of atorvastatin-induced thrombomodulin upregulation ([5]; higher mevalonate concentration): virtually complete inhibition

Structure (SMILES): C=C(CC[C@]12O[C@H](C(=O)O)[C@@](O)(C(=O)O)[C@](C(=O)O)(O1)[C@H](OC(=O)/C=C/[C@@H](C)C[C@@H](C)CC)[C@H]2O)[C@@H](OC(C)=O)[C@H](C)Cc1ccccc1 [zaragozic acid, zaragozic acid A]
- influence of enzyme inhibitors on thrombomodulin activity [4]: no effect
